# Reference: ChEMBL document CHEMBL4033756, “Identification of Better Pharmacokinetic Benzothiazinone Derivatives as New Antitubercular Agents” (ACS Med Chem Lett, 2017)
# How the values were obtained:
# [1] = Cytotoxicity against African green monkey Vero cells assessed as cell viability after 72 hrs by MTT assay; assay type: cell-based; conditions: chlorocebus sabaeus
# [2] = Cmax in ICR mouse at 50 mg/kg, po by HPLC analysis; assay type: ADME, organism-based; set-up: dose 50 mg/kg, route oral; conditions: in vivo
# [3] = Tmax in ICR mouse at 50 mg/kg, po by HPLC analysis; assay type: ADME, organism-based; conditions: in vivo
# [4] = AUC (0 to infinity) in ICR mouse at 50 mg/kg, po by HPLC analysis; assay type: ADME, organism-based; set-up: dose 50 mg/kg, time infinity, route oral; conditions: in vivo
# [5] = tested on: Mycobacterium tuberculosis; experiment: Antitubercular activity against Mycobacterium tuberculosis H37Rv after 7 days by microplate alamar blue assay; assay type: functional; conditions: 168 h
# [6] = Aqueous solubility of the compound at pH 2 after 12 hrs by HPLC-UV method; assay type: physicochemical
# [7] = Elimination half life in ICR mouse at 50 mg/kg, po by HPLC analysis; assay type: ADME, organism-based; conditions: in vivo, read-out: beta t1/2 (converted)
# [8] = MRT in ICR mouse at 50 mg/kg, po by HPLC analysis; assay type: ADME, organism-based; conditions: in vivo
# Mus musculus = experiment: Acute toxicity in Kunming mouse assessed as mortality at 500 mg/kg, po measured during first 4 hours and then each hour for next 24 hrs and at 8 hourly intervals for following 7 days post dose; assay type: organism-based; conditions: in vivo
SMILES,CC50 at 72 h [1] [µM],MIC90 [5] [µM],solubility at 12 h [6] [µg/mL],other results
O=c1nc(N2CCC3(CCN(Cc4ccc(F)cc4)C3)CC2)sc2c([N+](=O)[O-])cc(C(F)(F)F)cc12,811,< 0.035,1.12,Cmax [2]: 1230 ng/mL; Tmax [3]: 1.08 h; AUC(0-inf) [4]: 6020 ng·h/mL; half-life [7]: 3.11 h; MRT [8]: 4 h
CC(C)(C)OC(=O)N1CC2(CCN(c3nc(=O)c4cc(C(F)(F)F)cc([N+](=O)[O-])c4s3)CC2)C1,–,1.92,–,–
CCOC(=O)CN1CC2(CCN(c3nc(=O)c4cc(C(F)(F)F)cc([N+](=O)[O-])c4s3)CC2)C1,–,0.444,–,–
O=C(CN1CCC2(CC1)CCN(c1nc(=O)c3cc(C(F)(F)F)cc([N+](=O)[O-])c3s1)CC2)NCc1ccccc1,–,6.42,–,–
CCOC(=O)CN1CCC2(CC1)CCN(c1nc(=O)c3cc(C(F)(F)F)cc([N+](=O)[O-])c3s1)CC2,–,0.542,–,–
O=c1nc(N2CCC3(CCN(Cc4cccc(F)c4)CC3)CC2)sc2c([N+](=O)[O-])cc(C(F)(F)F)cc12,1400,0.054,1.13,Cmax [2]: 901 ng/mL; Tmax [3]: 0.67 h; AUC(0-inf) [4]: 4870 ng·h/mL; Activity (Mus musculus): Non-Toxic; half-life [7]: 3.53 h; MRT [8]: 4.83 h
COc1ccccc1CN1CCC2(CCN(c3nc(=O)c4cc(C(F)(F)F)cc([N+](=O)[O-])c4s3)CC2)C1,–,1.68,–,–
CCN(CC)C(=O)CN1CCC2(CC1)CCN(c1nc(=O)c3cc(C(F)(F)F)cc([N+](=O)[O-])c3s1)CC2,–,6.32,–,–
O=C(CN1CCC2(CC1)CCN(c1nc(=O)c3cc(C(F)(F)F)cc([N+](=O)[O-])c3s1)CC2)OCc1ccccc1,–,0.352,–,–
O=c1nc(N2CCC3(CCN(Cc4ccc(Br)cc4)CC3)CC2)sc2c([N+](=O)[O-])cc(C(F)(F)F)cc12,1680,0.057,1.17,Cmax [2]: 1680 ng/mL; Tmax [3]: 1 h; AUC(0-inf) [4]: 24600 ng·h/mL; Activity (Mus musculus): Non-Toxic; half-life [7]: 10.7 h; MRT [8]: 15.9 h
COc1ccc(CN2CCC3(CCN(c4nc(=O)c5cc(C(F)(F)F)cc([N+](=O)[O-])c5s4)CC3)C2)cc1,86.2,0.112,1.4,–
O=c1nc(N2CCC3(CCN(CC4CCCCC4)C3)CC2)sc2c([N+](=O)[O-])cc(C(F)(F)F)cc12,–,0.22,–,–
CC(C)(C)OC(=O)N1CCC2(CCN(c3nc(=O)c4cc(C(F)(F)F)cc([N+](=O)[O-])c4s3)CC2)C1,–,3.26,–,–
COc1ccc(CN2CCC3(CC2)CCN(c2nc(=O)c4cc(C(F)(F)F)cc([N+](=O)[O-])c4s2)CC3)cc1,–,1,–,–
O=c1nc(N2CCC3(CCN(Cc4cc(F)cc(F)c4)CC3)CC2)sc2c([N+](=O)[O-])cc(C(F)(F)F)cc12,1170,< 0.035,0.67,Cmax [2]: 426 ng/mL; Tmax [3]: 0.5 h; AUC(0-inf) [4]: 2600 ng·h/mL; Activity (Mus musculus): Non-Toxic; half-life [7]: 4.68 h; MRT [8]: 5.8 h
CC(C)(C)OC(=O)N1CCC2(CC1)CCN(c1nc(=O)c3cc(C(F)(F)F)cc([N+](=O)[O-])c3s1)CC2,–,0.219,–,–
CN1CCC2(CC1)CCN(c1nc(=O)c3cc(C(F)(F)F)cc([N+](=O)[O-])c3s1)CC2,–,33.5,–,–
O=c1nc(N2CCC3(CCN(CC4CCCCC4)CC3)CC2)sc2c([N+](=O)[O-])cc(C(F)(F)F)cc12,–,0.944,–,–
O=c1nc(N2CCC3(CCN(Cc4ccc(C(F)(F)F)cc4)CC3)CC2)sc2c([N+](=O)[O-])cc(C(F)(F)F)cc12,145,< 0.035,1.24,Cmax [2]: 2700 ng/mL; Tmax [3]: 1.33 h; AUC(0-inf) [4]: 28700 ng·h/mL; Activity (Mus musculus): Non-Toxic; half-life [7]: 3.59 h; MRT [8]: 6.07 h
COc1ccc(CN2CC3(CCN(c4nc(=O)c5cc(C(F)(F)F)cc([N+](=O)[O-])c5s4)CC3)C2)cc1,78.9,0.113,1.2,–
COc1ccc(C(=O)N2CCC3(CC2)CCN(c2nc(=O)c4cc(C(F)(F)F)cc([N+](=O)[O-])c4s2)CC3)cc1,–,26.6,–,–
O=c1nc(N2CCC3(CCN(Cc4ccccc4)C3)CC2)sc2c([N+](=O)[O-])cc(C(F)(F)F)cc12,289,0.06,1.56,–
O=c1nc(N2CCC3(CCN(Cc4ccccc4)CC3)CC2)sc2c([N+](=O)[O-])cc(C(F)(F)F)cc12,–,0.847,–,–
O=c1nc(N2CCC3(CCN(Cc4ccc(F)cc4)CC3)CC2)sc2c([N+](=O)[O-])cc(C(F)(F)F)cc12,–,0.21,–,–
O=c1nc(N2CCC3(CC2)CN(CC2CCCCC2)C3)sc2c([N+](=O)[O-])cc(C(F)(F)F)cc12,–,0.468,–,–
COc1cc(CN2CCC3(CC2)CCN(c2nc(=O)c4cc(C(F)(F)F)cc([N+](=O)[O-])c4s2)CC3)cc(OC)c1,–,0.825,–,–
CCOC(=O)CN1CCC2(CCN(c3nc(=O)c4cc(C(F)(F)F)cc([N+](=O)[O-])c4s3)CC2)C1,266,0.062,2.04,Cmax [2]: 17.6 ng/mL; Tmax [3]: 0.67 h; AUC(0-inf) [4]: 41.8 ng·h/mL; Activity (Mus musculus): Non-Toxic; half-life [7]: 3.46 h; MRT [8]: 5.2 h
NNC(=O)c1ccncc1 [ISONIAZID],–,0.284,–,–
O=c1nc(N2CCN(CC3CCCCC3)CC2)sc2c([N+](=O)[O-])cc(C(F)(F)F)cc12 [MACOZINONE],1400,< 0.035,0.9,Cmax [2]: 1300 ng/mL; Tmax [3]: 0.83 h; AUC(0-inf) [4]: 5480 ng·h/mL; half-life [7]: 2.87 h; MRT [8]: 3.73 h
CO[C@H]1/C=C/O[C@@]2(C)Oc3c(C)c(O)c4c(O)c(c(/C=N/N5CCN(C)CC5)c(O)c4c3C2=O)NC(=O)/C(C)=C\C=C\[C@H](C)[C@H](O)[C@@H](C)[C@@H](O)[C@@H](C)[C@H](OC(C)=O)[C@@H]1C [RIFAMPIN],–,0.092,–,–
